Where only a bound is given, the exact number is not on record here.

Consider ten compounds from US8785638B2, “Thieno [2, 3-B] pyridine derivatives as viral replication inhibitors” (Katholieke Universiteit Leuven, priority 2009, dated 2014).

The target in data set [1] is LEDGF/p75-HIV-1 integrase interaction (Human immunodeficiency virus type 1 group M subtype B (isolate HXB2) (HIV-1), UniProt P04585). The experiment in a line: AlphaScreen assay of LEDGF-integrase interaction inhibition. It counts as binding. The conditions noted are these: His6-tagged integrase 300 nM, flag-LEDGF/p75 100 nM; read-out: Alphascreen IC50. As to the method:
Alphascreen Assay to Measure the LEDGF-Integrase Interaction Inhibitory Activity of Compounds of the Invention
The AlphaScreen assay was performed according to the manufacturer's protocol (Perkin Elmer, Benelux). Reactions were performed in 25 μl final volume in 384-well Optiwell™ microtiter plates (Perkin Elmer). The reaction buffer contained 25 mM Tris-HCl (pH 7.4), 150 mM NaCl, 1 mM MgCl2, 0.01% (v/v) Tween-20 and 0.1% (w/v) bovine serum albumin. His6-tagged integrase (300 nM final concentration) was incubated with the compounds for 30 min at 4° C. The compounds were added at varying concentrations spanning a wide range from 0.1 up to 100 μM. Afterwards 100 nM flag-LEDGF/p75 was added and incubation was prolonged for an additional hour at 4° C. Subsequently 5 μl of Ni-chelate-coated acceptor beads and 5 μl anti-flag donor beads were added to a final concentration of 20 μg/ml of both beads. Proteins and beads were incubated for 1 h at 30° C. in order to allow association to occur. Exposure of the reaction to direct light was omitted as much as possible and the emission of light from the acceptor beads was measured in the EnVision plate reader (Perkin Elmer, Benelux) and analyzed using the EnVision manager software. IN/DNA binding was analyzed in a similar setting using His6-tagged integrase (1 μM final concentration) and an oligodeoxynucleotide mimicking the IN ELISA oligonucleotide substrate (30 nM final concentration). Counterscreens with JPO2 or PogZ, respectively, were essentially performed as described previously.
His6-tagged HIV-1 integrase, 3xflag-tagged LEDGF/p75, MBP-JPO2 and MBP-PogZ were purified for AlphaScreen applications as described previously 23,25,56.

Data set [2] deals with HIV-1 (IIIB), HIV-1 (NL4.3). The data set is described as follows: microbe, parasite or virus in culture. It counts as cell-based. The conditions noted are these: for EC50: Human immunodeficiency virus 1, IIIB, MT4, MT-4 cells, 50% protection against HIV-induced cytopathogenic effect, MTT; for SI: selectivity index, ratio of CC50 to EC50. As for the experimental part: (§1) A rapid and automated assay procedure was used for the in vitro evaluation of anti-HIV agents. An HTLV-1 transformed T4-cell line MT-4, which was previously shown to be highly susceptible to and permissive for HIV infection, served as the target cell line. Inhibition of the HIV-induced cytopathogenic effect was used as the end point. The viabitlity of both HIV- and mock-infected cells was assessed spectrophotometrically via in situ reduction of 3-(4,5-dimethylthiazol-2-yl)-2,5-diphenyltetrazolium bromide (MTT). The 50% cytotoxic concentration (CC50 in μM or μg/ml) was defined as the concentration of compound that reduced the absorbance of the mock-infected control sample by 50%. The percent protection achieved by the compound in HIV-infected cells was calculated by the following formula:
(§2) [formula] whereby (ODT)HIV is the optical density measured with a given concentration of the test compound in HIV-infected cells; (ODC)HIV is the optical density measured for the control untreated HIV-infected cells; (ODC)MOCK is the optical density measured for the control untreated mock-infected cells; all optical density values were determined at 540 nm. The dose achieving 50% protection according to the above formula was defined as the 50% inhibitory concentration (EC50 in μM or μg/ml). The ratio of CC50 to EC50 was defined as the selectivity index (SI). […] Examples of inhibition of cell proliferation by particular compounds of the invention can be found by looking at the respective CC50 values in the MT-4 cell line. Cells:
(§3) MT-4 cells (Miyoshi et al., 1982) were grown and maintained in RPMI 1640 medium supplemented with 10% heat-inactivated fetal calf serum, 2 mM I-glutamine, 0.1% sodium bicarbonate, and 20 μg of gentamicin per ml. Alternatively, the MT-4 cells may also be grown in RPMI 1640 medium supplemented with 10% FCS and 20 μg/ml of gentamicin (RPMI-complete).
The HIV-1 (IIIB) strain (Popovic et al., 1984) as well as the HIV-1 (NL4.3) strain (Adachi et al., J. Virol. 59, 284-291 (1986)) were used.

Data set [3] is described as follows: Cytotoxicity in mock-infected MT-4 cells (MTT). It counts as cell-based. The conditions noted are these: human, 50% cytotoxic concentration. As for the experimental part:
as §1, §2, §3

As to `Cc1ccc(-c2c(C(OC(C)(C)C)C(=O)O)c(C)nc3sc4c(c23)CCCC4)cc1` (stereo not drawn) [Cpd 170, 2-[2-Methyl-4-p-tolyl-5,6,7,8-tetrahydro[1]benzothieno[2,3-b]pyridin-3-yl]-2-tert-butoxyacetic acid], the IC50 in data set [1] turned out to be 0.05 µM. For the same compound, in data set [2], a half-maximal effect (EC50) was put at 0.0263 µM and the SI was determined as 4429. For the same compound, the CC50 in data set [3] stood at 116 µM.

For the compound `Cc1ccc(-c2c(C(C(=O)O)C(C)C)c(C)nc3sc4c(c23)CCCC4)cc1` (stereo not drawn) [Cpd 156, 2-[2-Methyl-4-(p-tolyl)-5,6,7,8-tetrahydro[1]benzothieno[2,3-b]pyridin-3-yl]-3-methylbutanoic acid], the IC50 in data set [1] was 59.6 µM. In data set [2], this compound displayed a concentration giving a half-maximal response (EC50) greater than 98 µM. In data set [3], this compound came in with a CC50 of 98 µM.

Regarding `Cc1ccc(-c2c(C(CC(C)C)C(=O)O)c(C)nc3sc4c(c23)CCCC4)cc1` (stereo not drawn) [Cpd 136, 2-[2-Methyl-4-(p-tolyl)-5,6,7,8-tetrahydro[1]benzothieno[2,3-b]pyridin-3-yl]-4-methylpentanoic acid], the IC50 in data set [1] amounted to 4.34 µM. In addition, in data set [2], the 50% effective concentration (EC50) was found to be 1.02 µM and the SI stood at 85. The same compound had a CC50 in data set [3] of 86.4 µM.

`COCC(C(=O)O)c1c(C)nc2sc3c(c2c1-c1ccc(C)cc1)CCC3` (stereo not drawn) [Cpd 125, 2-[2-Methyl-4-(p-tolyl)-6,7-dihydro-5H-cyclopenta[4,5]thieno[2,3-b]pyridin-3-yl]-3-methoxypropanoic acid]: the IC50 in data set [1] came to 77 µM. In data set [2], a half-maximal effect (EC50) was put at 66.5 µM and the SI is on record as greater than 2. The compound also came in with a CC50 in data set [3] greater than 125 µM.

`CCCC(C(=O)O)c1c(C)nc2sc3c(c2c1-c1ccccc1F)CCCC3` (stereo not drawn) [Cpd 153, 2-[2-Methyl-4-(2-fluorophenyl)-5,6,7,8-tetrahydro[1]benzothieno[2,3-b]pyridin-3-yl]pentanoic acid]: the IC50 in data set [1] came out at 43.6 µM. Also, in data set [2], the EC50 came to 17 µM and the SI is greater than 8. Also, the CC50 in data set [3] is greater than 125 µM.

`CCCC(C(=O)O)c1c(C)nc2sc3c(c2c1-c1cccc(C(F)(F)F)c1)CCCC3` (stereo not drawn) [Cpd 140, 2-[2-Methyl-4-(3-trifluoromethylphenyl)-5,6,7,8-tetrahydro[1]benzothieno[2,3-b]pyridin-3-yl]pentanoic acid]: the IC50 in data set [1] turned out to be 18.1 µM. Besides, in data set [2], the EC50 stood at 28.2 µM and the SI is 4. In data set [3], this compound registered a CC50 of 100 µM.

Consider `CCCC(C(=O)O)c1c(C)nc2sc3c(c2c1-c1ccc(C(F)(F)F)cc1)CCC3` (stereo not drawn) [Cpd 116, 2-[2-Methyl-4-(4-trifluoromethylphenyl)-6,7-dihydro-5H-cyclopenta[4,5]thieno[2,3-b]pyridin-3-yl]pentanoic acid], for which the IC50 in data set [1] was found to be 0.62 µM. In data set [2], the midpoint of the response, the EC50, lay at 1.21 µM and the SI stood at 12. For the same compound, the CC50 in data set [3] was found to be 14.7 µM.

As for `Cc1ccc(-c2c(CC(=O)O)c(C)nc3sc4c(c23)CCC4)cc1` [Cpd 101, [2-Methyl-4-p-tolyl-6,7-dihydro-5H-cyclopenta[4,5]thieno[2,3-b]pyridin-3-yl]acetic acid], the IC50 in data set [1] is 55.3 µM. In data set [2], it took 64.1 µM to reach a half-maximal effect (EC50) and the SI is given as greater than 2. In addition, the CC50 in data set [3] was greater than 125 µM.

Consider `CCCC(C(=O)O)c1c(C)nc2sc3c(c2c1-c1ccc(C)cc1)CCC3` (stereo not drawn) [Cpd 100, 2-[2-Methyl-4-p-tolyl-6,7-dihydro-5H-cyclopenta[4,5]thieno[2,3-b]pyridin-3-yl]pentanoic acid], for which, in data set [1], the IC50 amounted to 6.61 µM. Moreover, in data set [2], the EC50 was determined as 1.69 µM and the SI is on record as 72. This compound also showed a CC50 in data set [3] of 121 µM.

On to `Cc1ccc(-c2c(C(OC(C)(C)C)C(=O)O)c(C)nc3sc4c(c23)CCCC4)cn1` (stereo not drawn) [Cpd 184, 2-[2-methyl-4-(6-methylpyridin-3-yl)-5,6,7,8-tetrahydro[1]benzothieno[2,3-b]pyridin-3-yl]-2-tert-butoxyacetic acid], for which the IC50 in data set [1] turned out to be 3.44 µM. In addition, in data set [2], the EC50 is 0.157 µM and the SI amounted to 1513. In addition, it took 237 µM to reach half-maximal cytotoxicity in data set [3] (CC50).
